Measurements reported in US20030083325A1, “Serotonin antagonists” (priority 1992, published 2003).
Structures can show the parent of a compound that is named as a salt.

Tests used:
[1] = target: T1, 5HT2 receptor (Rattus norvegicus, UniProt P14842); test: spiroperidol binding test (5HT2 binding affinity); settings: [3H] spiroperidol binding; concentration of compound at 50% inhibition
T1 construct: from tissue
From the text: As noted above, the compounds of Formula I are serotonin 5HT2 antagonists. […] In this test, 5HT2 receptors are exposed to both [^3H] spiroperidol, (a substance known to have a specific affinity for the receptor) and the test compound. The extent to which there is a decrease in binding of the [^3H] spiroperidol to the receptor is indicative of the affinity of the test compound for the 5HT2 receptor.
d) any reference to “5HT2 binding affinity” refers to the spiroperidol binding test as described by Peroutka et al., in Mol.Pharmacol., Vol. 16, pages 687-699 (1979).

[2] = tested on: thrombus formation; settings: canine models; cited from earlier work
[3] = tested on: coronary vessel constriction; settings: patients with stable angina; cited from earlier work
[4] = tested on: preference for alcohol and cocaine; settings: rodent model of drug abuse; cited from earlier work

T1 sequence (P14842 whole entry): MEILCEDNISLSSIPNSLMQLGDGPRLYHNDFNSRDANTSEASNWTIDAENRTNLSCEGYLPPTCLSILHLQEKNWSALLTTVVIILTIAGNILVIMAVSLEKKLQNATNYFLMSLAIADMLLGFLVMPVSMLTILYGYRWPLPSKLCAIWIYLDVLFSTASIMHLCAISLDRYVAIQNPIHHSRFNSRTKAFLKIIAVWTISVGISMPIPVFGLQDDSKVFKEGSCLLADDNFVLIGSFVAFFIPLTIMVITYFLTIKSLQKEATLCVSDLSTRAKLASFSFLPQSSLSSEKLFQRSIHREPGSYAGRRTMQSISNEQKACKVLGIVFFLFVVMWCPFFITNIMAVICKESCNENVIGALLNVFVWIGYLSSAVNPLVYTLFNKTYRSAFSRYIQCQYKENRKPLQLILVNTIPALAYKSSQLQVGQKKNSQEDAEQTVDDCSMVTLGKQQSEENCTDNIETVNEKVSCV

IC50 [1] [nM] | SMILES | further results
206 | O=C(CN1CCC(CN2C(=O)C3CC=CCC3C2=O)CC1)c1ccc(F)cc1 (stereo not drawn) [Example 3, 2-[[1-[2-(4-fluorophenyl)-2-oxoethyl]-4-piperidinyl]methyl]-3a,4,7,7a-tetrahydro-1H-isoindole-1,3(2H)-dione monohydrohydrochloride] | –
162 | O=C(CN1CCC(CN2C(=O)[C@H]3CCCC[C@H]3C2=O)CC1)c1ccc(F)cc1 [Example 4, cis-2-[[1-[2-(4-fluorophenyl)-2-oxoethyl]-4-piperidinyl]methyl]hexahydro-1H-isoindole-1,3(2H)-dione monohydrochloride] | –
172 | O=C(CN1CCC(CN2C(=O)C3C4C=CC(C4)C3C2=O)CC1)c1ccc(F)cc1 (stereo not drawn) [Example 6, 2-[[1-[2-(4-fluorophenyl)-2-oxoethyl]-4-piperidinyl]methyl]-3a,4,7,7a-tetrahydro-4,7-methano-1H-isoindole-1,3(2H)-dione monohydrochloride] | –
307 | O=C(CN1CCC(CN2C(=O)C(c3ccccc3)=C(c3ccccc3)C2=O)CC1)c1ccc(F)cc1 [Example 7, 1-[[1-[2-(4-fluorophenyl)-2-oxoethyl]-4-piperidinyl]methyl]-3,4-diphenyl-1H-pyrrole-2,5-dione monohydrohydrochloride] | –
116 | Cc1ccc2c(c1)C(=O)N(CC1CCN(CC(=O)c3ccc(F)cc3)CC1)C2=O [Example 8, 2-[[1-[2-(4-fluorophenyl)-2-oxoethyl]-4-piperidinyl]methyl]-5-methyl-1H-isoindole-1,3(2H)-dione monohydrochloride] | –
96 | O=C(CN1CCC(CN2C(=O)c3cccc4cccc(c34)C2=O)CC1)c1ccc(F)cc1 [Example 9, 2-[[1-[2-(4-fluorophenyl)-2-oxoethyl]-4-piperidinyl]methyl]-1H-benz[de]isoquinoline-1,3(2H)-dione monohydrochloride] | –
33 | O=C(CN1CCC(CN2C(=O)c3cccc(F)c3C2=O)CC1)c1ccc(F)cc1 [Example 11, 2-[[1-[2-(4-fluorophenyl)-2-oxoethyl]-4-piperidinyl]methyl]-4-fluoro-1H-isoindole-1,3(2H)-dione monohydrochloride] | –
14.9 | O=C(CN1CCC(Cn2c(=O)[nH]c3ccccc3c2=O)CC1)c1ccc(F)cc1 [Example 12, 2-[[1-[2-(4-fluorophenyl)-2-oxoethyl]-4-piperidinyl]methyl]-benzoyleneurea] | –

Further lines, the compound ahead of its results:

SMILES | IC50 [1] [nM] | further results
O=C(CN1CCC(CN2C(=O)[C@@H]3CCCC[C@H]3C2=O)CC1)c1ccc(F)cc1 (relative stereo) [Example 5, trans-2-[[1-[2-(4-fluorophenyl)-2-oxoethyl]-4-piperidinyl]methyl]hexahydro-1H-isoindole-1,3(2H)-dione monohydrochloride] | 76 | –
O=C(CN1CCC(CN2C(=O)C3C4C=CC(CC4)C3C2=O)CC1)c1ccc(F)cc1 (stereo not drawn) [Example 1, 2-[[1-[2-(4-fluorophenyl)-2-oxoethyl]-4-piperidinyl]methyl]-3a,4,7,7a-tetrahydro-4,7-ethano-1H-isoindole-1,3(2H)-dione monohydrochloride] | 48 | –
O=C(CN1CCC(CN2C(=O)c3ccccc3C2=O)CC1)c1ccc(F)cc1 [Example 2, 2-[[1-[2-(4-fluorophenyl)-2-oxoethyl]-4-piperidinyl]methyl]-1H-isoindole-1,3(2H)-dione] | 13 | –
O=C(CN1CCC(CN2C(=O)c3ccccc3C2=O)CC1)c1ccccc1 [Example 10, 2-[[1-[2-phenyl-2-oxoethyl]-4-piperidinyl]methyl]-1H-isoindole-1,3(2H)-dione monohydrochloride] | 13 | –
O=C(c1ccc(F)cc1)C1CCN(CCn2c(=O)[nH]c3ccccc3c2=O)CC1 [Ketanserin] | – | prevention of thrombus formation [2]: extremely effective in preventing thrombus formation; coronary vessel constriction [3]: blocked coronary vessel constriction
Cc1nc2sccn2c(=O)c1CCN1CCC(=C(c2ccc(F)cc2)c2ccc(F)cc2)CC1 [ritanserin] | – | preference for alcohol and cocaine [4]: abolished the preference for both alcohol and cocaine
